These results are taken from paper PMC5618409, “Sequence Analysis, Kinetic Constants, and Anion Inhibition Profile of the Nacrein-Like Protein (CgiNAP2X1) from the Pacific Oyster Magallana gigas (Ex-Crassostrea gigas)” (Marine Drugs, 2017).

One test deals with CgiNAP2X1 (Magallana gigas, UniProt A0A8W8INI3). Kind of test: stopped-flow CO2 hydration assay. In kind it is biochemical.
Chain of CgiNAP2X1 (A0A8W8INI3 23-318 limits assumed): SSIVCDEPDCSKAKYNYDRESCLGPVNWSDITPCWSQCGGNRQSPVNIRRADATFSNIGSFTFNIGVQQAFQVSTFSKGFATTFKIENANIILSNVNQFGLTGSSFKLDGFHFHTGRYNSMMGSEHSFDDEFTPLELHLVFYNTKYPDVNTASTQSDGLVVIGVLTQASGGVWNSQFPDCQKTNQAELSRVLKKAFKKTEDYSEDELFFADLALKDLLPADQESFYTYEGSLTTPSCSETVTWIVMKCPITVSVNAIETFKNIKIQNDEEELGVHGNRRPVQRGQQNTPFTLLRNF
Settings: not given
In the case of `S` [HS^−], the Ki came out at 8.19 mM.
`O=NO` [NO2^−] displayed a Ki of 7.14 mM.
Still for that read-out and setting: to `Cl` [Cl^−] belongs 10.8 mM.
As for `O=S(=O)(O)C(F)(F)F` [CF3SO3^−], the Ki is 8.68 mM.
For `OB(O)c1ccccc1` [phenylboronic acid], the Ki was 0.072 mM.
On the same count and under the same terms, then `N#CS` [SCN^−], with 5.88 mM.
Compound `[O]=[Sn]([OH])[OH]` [SnO3^2−] yielded a Ki of 3.47 mM.
As to `I` [I^−], the Ki is 8.86 mM.
Compound `N#C[SeH]` [SeCN^−] registered a Ki of 8.21 mM.
As to `N#CO` [CNO^−], the Ki was determined as 3.11 mM.

Still in this test, the particulars now being: read-out: KIs [mM] ^2 / CgiNAP2X1.
Turning to `NS(=O)(=O)O` [sulfamate], the Ki was found to be 0.073 mM.
Still for that read-out and setting: then `NS(N)(=O)=O` [sulfamide], with 0.076 mM.
